This passage reports IC50 results from US20240158392A1 (Janssen Biotech, Inc., priority 2021, published 2024).

In the experiment the target is SIK2 (Homo sapiens, UniProt Q9H0K1). In words: SIK2 Enzymatic Assay High Version 2 (High ATP). The format is biochemical. Put shortly:
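At room temperature, enzyme (6 nM, 2× final) was preincubated with compound for 30 min, then 6 mM ATP and 400 μM HDAC5tide (both 2× final) were added for 2 h. ADP formed was measured by ADP-Glo Max (2 h reagent, 1 h detection) using luminescence.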

Setting [1] is: enzyme 6 nM, 6 mM ATP and 400 μM HDAC5tide (each 2× final concentration), 30 minutes pre-incubation, 2 hours, ADP-Glo Max luminescence, read-out: SIK2 high ATP IC50 (μM) (Test Example 2).

Read-outs that look alike come from different tables or passages of the source.

Sequence of SIK2 (Q9H0K1 whole entry, species assumed): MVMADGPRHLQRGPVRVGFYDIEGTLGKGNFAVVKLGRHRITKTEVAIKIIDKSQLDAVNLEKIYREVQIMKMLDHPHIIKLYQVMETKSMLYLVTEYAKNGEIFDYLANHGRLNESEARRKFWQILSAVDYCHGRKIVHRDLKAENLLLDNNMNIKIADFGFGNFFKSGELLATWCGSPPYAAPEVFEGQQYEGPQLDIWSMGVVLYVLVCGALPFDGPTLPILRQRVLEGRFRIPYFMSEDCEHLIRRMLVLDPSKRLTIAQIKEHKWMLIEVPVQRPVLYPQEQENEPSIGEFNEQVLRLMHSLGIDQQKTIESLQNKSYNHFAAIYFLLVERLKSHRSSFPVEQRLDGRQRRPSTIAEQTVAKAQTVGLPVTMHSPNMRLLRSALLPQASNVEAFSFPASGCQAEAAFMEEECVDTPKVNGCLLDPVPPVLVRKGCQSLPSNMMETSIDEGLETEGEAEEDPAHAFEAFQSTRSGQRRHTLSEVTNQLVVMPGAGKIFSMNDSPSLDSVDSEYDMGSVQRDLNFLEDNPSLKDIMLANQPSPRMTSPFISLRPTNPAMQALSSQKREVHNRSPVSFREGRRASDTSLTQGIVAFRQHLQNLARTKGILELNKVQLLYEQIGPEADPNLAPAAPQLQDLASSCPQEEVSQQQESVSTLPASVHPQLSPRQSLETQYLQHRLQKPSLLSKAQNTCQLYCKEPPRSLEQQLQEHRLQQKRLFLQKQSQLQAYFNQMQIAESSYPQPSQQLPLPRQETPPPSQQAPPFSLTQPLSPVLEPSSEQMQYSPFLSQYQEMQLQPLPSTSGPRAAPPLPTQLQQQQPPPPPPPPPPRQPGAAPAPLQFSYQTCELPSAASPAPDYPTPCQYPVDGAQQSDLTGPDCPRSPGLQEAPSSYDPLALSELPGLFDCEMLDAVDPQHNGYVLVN

By IC50 is commonly meant the point on the concentration scale where inhibition reaches its midpoint. Regarding `Cc1cc(-c2ccn3nc(Nc4cc(C)nc(C5CC5)n4)cc3c2)c(OCC(C)(C)C#N)cn1` [Example 310, 3-[[4-[2-[(2-cyclopropyl-6-methyl-pyrimidin-4-yl)amino]pyrazolo[1,5-a]pyridin-5-yl]-6-methyl-3-pyridyl]oxy]-2,2-dimethyl-propanenitrile], the IC50 under setting [1] is < 0.000847 µM. As to `Cc1cc(-c2ccn3nc(Nc4cc(C)nc(C)n4)cc3c2)c(OCC2(C(N)=O)CC2)cn1` [Example 313, 1-[[4-[2-[(2,6-dimethylpyrimidin-4-yl)amino]pyrazolo[1,5-a]pyridin-5-yl]-6-methyl-3-pyridyl]oxymethyl]cyclopropanecarboxamide], under setting [1], the IC50 amounted to 0.0138 µM.

For the compound `Cc1cc(-c2ccn3nc(Nc4cc(C)nc(C)n4)cc3c2)c(O[C@H]2C[C@@H](N)C2)cn1` [Example 314, 5-[5-(3-aminocyclobutoxy)-2-methyl-4-pyridyl]-N-(2,6-dimethylpyrimidin-4-yl)pyrazolo[1,5-a]pyridin-2-amine], the IC50 under setting [1] was determined as 0.0129 µM. As for `Cc1cc(-c2ccn3nc(Nc4cc(C)nc(C)n4)cc3c2)c(OCCC(C)(C)C#N)cn1` [Example 315, 4-[[4-[2-[(2,6-dimethylpyrimidin-4-yl)amino]pyrazolo[1,5-a]pyridin-5-yl]-6-methyl-3-pyridyl]oxy]-2,2-dimethyl-butanenitrile], the IC50 under setting [1] was determined as 0.00406 µM. The same measure, in the same setting: the value for `Cc1cc(-c2ccn3nc(Nc4cc(C)c(=O)n(C5CC5)n4)cc3c2)c(OCC(C)(C)C#N)cn1` [Example 316, 3-[[4-[2-[(1-cyclopropyl-5-methyl-6-oxo-pyridazin-3-yl)amino]pyrazolo[1,5-a]pyridin-5-yl]-6-methyl-3-pyridyl]oxy]-2,2-dimethyl-propanenitrile] was < 0.000847 µM; that for `Cc1cc(-c2ccn3nc(Nc4cc(C)c(=O)n(C5CC5)n4)cc3c2)c(OC[C@H]2OCC[C@@H]2O)cn1` [Example 317, 2-cyclopropyl-6-[[5-[5-[[(2R,3S)-3-hydroxytetrahydrofuran-2-yl]methoxy]-2-methyl-4-pyridyl]pyrazolo[1,5-a]pyridin-2-yl]amino]-4-methyl-pyridazin-3-one] was 0.0017 µM. Consider `Cc1cc(-c2ccn3nc(Nc4cc(C)c(=O)n(C5CC5)n4)cc3c2)c(O[C@H]2CC[C@H](O)CC2)cn1` [Example 318, 2-cyclopropyl-6-[[5-[5-(4-hydroxycyclohexoxy)-2-methyl-4-pyridyl]pyrazolo[1,5-a]pyridin-2-yl]amino]-4-methyl-pyridazin-3-one], for which the half-maximal inhibitory concentration (IC50) under setting [1] is < 0.000847 µM. As for `Cc1cc(-c2cc3cc(NC(=O)C4CC4)nn3cn2)c(O[C@H]2C[C@H]3COC[C@@H](C2)N3C)cn1` [Example 319, N-[5-[2-methyl-5-[[(1S,5R)-9-methyl-3-oxa-9-azabicyclo[3.3.1]nonan-7-yl]oxy]-4-pyridyl]pyrazolo[1,5-c]pyrimidin-2-yl]cyclopropanecarboxamide], the half-maximal inhibitory concentration (IC50) is 0.00194 µM. On the same count and under the same terms, then `Cc1cnc(Nc2cn3cc(-c4cc(C)ncc4O[C@H]4C[C@H]5COC[C@@H](C4)N5)ncc3n2)cn1` [Example 320, 6-[2-methyl-5-[[(1S,5R)-3-oxa-9-azabicyclo[3.3.1]nonan-7-yl]oxy]-4-pyridyl]-N-(5-methylpyrazin-2-yl)imidazo[1,2-a]pyrazin-2-amine], with 0.00102 µM; and `Cc1cc(-c2cn3cc(Nc4cncc(C)n4)nc3cn2)c(O[C@H]2C[C@H]3COC[C@@H](C2)N3)cn1` [Example 321, 6-[2-methyl-5-[[(1S,5R)-3-oxa-9-azabicyclo[3.3.1]nonan-7-yl]oxy]-4-pyridyl]-N-(6-methylpyrazin-2-yl)imidazo[1,2-a]pyrazin-2-amine], with < 0.000847 µM. Regarding `Cc1cc(-c2cn3cc(Nc4cnn(C)c4)nc3cn2)c(O[C@H]2C[C@H]3COC[C@@H](C2)N3)cn1` [Example 322, 6-[2-methyl-5-[[(1S,5R)-3-oxa-9-azabicyclo[3.3.1]nonan-7-yl]oxy]-4-pyridyl]-N-(1-methylpyrazol-4-yl)imidazo[1,2-a]pyrazin-2-amine], it took 0.0015 µM to reach half-maximal inhibition (IC50).
